Experiment [1] relates to bESCs. Description: Matrix coating supporting expansion of bESCs in feeder-free conditions. Type of experiment: cell-based, bovine. Particulars: for bESC growth on pre-coated plate (FIG. 2): Method 1 bESCs, medium with 2.5 μM IWR-1 (bESC medium 1). The source says: After co-culture with MEFs, bESCs were collected using TrypLE treatment and cultured in 6-well plastic plates in feeder-free conditions for expansion. […] However, collagen pre-coated plates can be used to support bESC growth in bESC medium 2.
To establish feeder-free conditions for bESCs, bESCs were collected from coculture with MEFs using TrypLE treatment and transferred into 6-well plastic plates precoated Vitronectin XF, collagen, or Matrigel®.
Vitronectin Coating Preparation: A frozen vial of Vitronectin XF (2 mL) from Stem Cell Technology (Cat #07180) was thawed and mixed with 50 mL of DPBS and distributed into 6 of 6-well plates (˜1.4 mL/well) sealed with Parafilm and kept wrapped in foil at +4° C. for not more than 2 weeks. Before use, the plate was kept at +37° C. for at least 1 hr. Immediately after aspiration excess of liquid, bESCs in culture medium were added.
Collagen Coating Preparation: Collagen (Sigma, Cat #5162-1G) was dissolved in distilled water and sterilized by filtration using 0.22 um filter. Collagen solution aliquoted into 70 μL PCR tubes and kept at −80° C. before use. For coating wells, the content of tube was transferred into 50 mL DPBS, carefully mixed, and distributed into 6 of 6 wells plate, approximately 1.3-1.4 mL/well. Plates sealed with Parafilm and kept at RT not more than 2 wecks.
Matrigel® Coating Preparation: Frozen stock (˜0.5 mL) of Matrigel® needs was thaw on ice and diluted in 50 mL of cold DPBS (+4° C.). Approximately 1.2-1.3 mL (9 μg/cm^2) of diluted Matrigel® solution was added to each well. After 1 hour incubation at +37° C. excess Matrigel® was removed and wells washed with warm DPBS.

In experiment [2] the test system is bESCs. Kind of experiment: bESC growth in mTeSR medium with DAPT and IWR-1 (Medium 3 / Method 3). Format: cell-based, bovine. How it is done: To test whether DAPT can be used for bESC cultures, the growth of bESC was tested in mTeSR medium with different concentrations of DAPT and IWR-1. […] Addition of IWR-1 to DAPT had no effect on bESCs. (FIG. 3, Table 6; bESC Medium 3/Method 3). mTeSR with 10 μM DAPT alone supported bESC cultures for more than 7 passages.
In Method 3, bESC were cultured in bESC medium 3 composed of TeSR Plus (WiCell) supplemented with […] of gamma γ-secretase inhibitor DAPT on collagen or a vitronectin-coated 6-well plate and were passage using PBS-EDTA. Following aspiration of bESC growth media, 0.7-1.2 mL of PBS-EDTA solution was added to each well of 6 well plate. After incubation 5 to 6 min at +37° C., PBS-EDTA was carefully removed by aspiration and 1-1.2 mL of cold (+1-+4° C.) TeSR medium was added, cells were suspended by pipette filtered via strainer (70 mkM), counted and an aliquot of 100,000 to 150,000 cell/well for 6 wells plate was taken and cells were centrifuged at 100 g for 5 minutes. Cell pellets were resuspended in 9 mL growth medium and plated on a collagen or vitronectin coated 6-well plate. Cells grew for 5-7 days until they formed large colonies. PBS-EDTA solution was prepared as described above.

The subject of experiment [3] is bESCs. Description: bESC growth in Medium 1 with alternative Wnt inhibitors (Medium 1a/1b) on vitronectin, feeder-free. Format: cell-based, bovine. Here is the method: 1) Wnt-inhibitors (Medium la and Medium 1b): In prior studies, mTeSR Plus medium supplemented with 20 ng/ml human FGF2 and 2.5 μM IWR1 was used for bESC cultures (Saito et al. 1992; Stice et al. 1996). […] Nat Chem Biol 11, 973-980 (2015); and Mallinger et al., Discovery of potent, orally bioavailable, small-molecule inhibitors of WNT signaling from a cell-based pathway screen.
bESC growth in Medium 1 was tested with concentrations of 1 nM, 5 nM, or 10 nM iCRT3 (Medium 1a).
In another set of experiments, bESC growth in Medium 1 was tested with concentrations of 1 nM, 5 nM, 75 nM, or 150 nM CCT251545 (Medium 1b).
In Method 1, bESC colonies growing on Vitronectin were passaged by using TrypLe. Following medium aspiration 0.5-0.8 mL of TrypLE was added to each well of 6 well plate. Cells incubated for 3.5 min at 37.2° C. Then TrypLE has been carefully removed by aspiration and 1-1.2 mL of cold (+1-+4° C.) TeSRr medium was added, cells were suspended by pipette filtered via strainer (70 mkM), counted and an aliquot of 70,000 to 100,000 cell/well for 6 wells plate was taken and cells centrifuged at 100 g for 5 minutes. The cell pellet was resuspended in 9 mL growth medium and seeded on coated by vitronectin 6-well plate.

Experiment [4] has as its system bovine embryo derived blastocysts. Description: Generation of bESC lines from blastocysts on different coatings. Type of experiment: cell-based. Particulars: Method 1. Here is the method: bESCs were generated from IVM/IVF bovine embryo derived blastocysts on 6th to 7th days post-fertilization. Briefly, bovine embryos were obtained from an outside source and cultured in TeSR Plus medium supplemented with 15% fetal bovine serum from 24 to 72 hours to get an expanded blastocyst stage. After that zona pellucida was removed by treating embryos with pronase. Embryos with stripped zona pellucida were plated on irradiated MEFs (obtained from WICell) in a 4-well IVF plate and cultured according to Method 1 or Method 2. Following expansion of inner cell mass after culture for 2-3 weeks on MEFs, cells were disaggregated by TrypLE, and bESC were generated from individual blastocysts by two Methods (Method 1 or Method 2) to maximize efficiency.
To determine if feeder-free conditions were suitable for maximizing generation of bESCs from inner cell mass, individual blastocysts were placed into culture plates according to Method 1 or Method 2 with coating conditions modified as shown in Table 1. Coating conditions using MEF feeder cells or vitronectin (feeder-free) were tested. In the first set, 11 bovine embryos were used to establish 4 bESC lines, 3 of which were differentiated and tossed after passage 5-7. Only one cell line remained undifferentiated and maintained expression of bESC pluripotency factors Oct4 and Sox2. […]

Where [5] appears, read: feeder-free, bESC medium 1 or 2.
Where [6] appears, read: 1 nM inhibitor in Medium 1, vitronectin.

Regarding collagen, in the experiment with bESCs [1], the “bESC growth on pre-coated plate (FIG. 2)” value was “supports bESC cultures”. The “bESC adherence to matrix” value with bESCs [1] (bESC medium 1) is “very lightly and weak”. In the experiment with bESCs [1] (bESC medium 2), the “bESC colony formation and growth on matrix” value was “able to form colonies and grow”. Also, the “bESC morphology on matrix” value with bESCs [1] (setting [5]) is “maintained a typical bESC morphology”.
As to `O=C(Nc1cccc2cccnc12)c1ccc(N2C(=O)[C@@H]3[C@H](C2=O)[C@@H]2C=C[C@H]3C2)cc1` [IWR-1], the “effect on bESCs of addition to DAPT” value in the experiment on bESCs [2] (IWR-1 added to DAPT in mTeSR medium) is listed as “no effect”.
As for `CCc1ccc(-c2nc(CSCC(=O)NCCc3ccccc3)c(C)o2)cc1` [iCRT3], the “bESC growth on vitronectin” value with bESCs [3] (1 nM inhibitor in Medium 1) and in the experiment with bESCs [3] (5 nM inhibitor in Medium 1) was “did not support bESC growth” each time. Further, the “passages after which cells died” value in the experiment on bESCs [3] (setting [6]) is on record as 1-2 passages; with bESCs [3] (5 nM inhibitor in Medium 1, vitronectin) it was 2-4 passages. Also, in the experiment with bESCs [3] (10 nM inhibitor in Medium 1), the “bESC growth with typical morphology and expression of Sox2 and Oct4” value was “supported bESC growth”. Besides, in the experiment on bESCs [3] (10 nM inhibitor in Medium 1), the “passages of supported bESC growth” value is listed as “more than 10 passages”.
As to `C[C@H](NC(=O)Cc1cc(F)cc(F)c1)C(=O)NC(C(=O)OC(C)(C)C)c1ccccc1` (some centres unmarked) [DAPT], the “growth of bESCs” value in the experiment with bESCs [2] (DAPT alone at 5-10 μM in mTeSR medium) was “sufficient to support growth of bESCs”. Also, the “passages of supported bESC cultures” value in the experiment on bESCs [2] (mTeSR with 10 μM DAPT alone) is on record as “more than 7 passages”.
In the case of gelatin, in the experiment on bESCs [1], the “bESC growth on pre-coated plate (FIG. 2)” value was “do not support the growth of bESCs”. Also, in the experiment with bESCs [1] (setting [5]), the “bESC attachment to pre-coated plates” value is listed as “attached” and the “bESC growth on pre-coated plates” value is “did not grow”.
With `Cn1cc(-c2ccc(-c3cncc(Cl)c3N3CCC4(CCNC4=O)CC3)cc2)cn1` [CCT251545], the “bESC growth on vitronectin” value in the experiment on bESCs [3] (1 nM inhibitor in Medium 1), with bESCs [3] (5 nM inhibitor in Medium 1) and in the experiment on bESCs [3] (75 nM inhibitor in Medium 1) was “did not support bESC growth” each time. The “passages after which cells died” value in the experiment on bESCs [3] (setting [6]) was 2-3 passages. The “bESC growth with typical morphology and expression of Sox2 and Oct4” value with bESCs [3] (150 nM inhibitor in Medium 1) was “supported bESC growth”. The “passages of supported bESC growth” value in the experiment with bESCs [3] (150 nM inhibitor in Medium 1) is reported as “more than 7 passages”.

B1: vitronectin + Cover Glass on the top: vitronectin coating with cover glass on top (protein, UniProt P04004 20-478, looked up)
Vitronectin: DQESCKGRCTEGFNVDKKCQCDELCSYYQSCCTDYTAECKPQVTRGDVFTMPEDEYTVYDDGEEKNNATVHEQVGGPSLTSDLQAQSKGNPEQTPVLKPEEEAPAPEVGASKPEGIDSRPETLHPGRPQPPAEEELCSGKPFDAFTDLKNGSLFAFRGQYCYELDEKAVRPGYPKLIRDVWGIEGPIDAAFTRINCQGKTYLFKGSQYWRFEDGVLDPDYPRNISDGFDGIPDNVDAALALPAHSYSGRERVYFFKGKQYWEYQFQHQPSQEECEGSSLSAVFEHFAMMQRDSWEDIFELLFWGRTSAGTRQPQFISRDWHGVPGQVDAAMAGRIYISGMAPRPSLAKKQRFRHRNRKGYRSQRGHSRGRNQNSRRPSRATWLSLFSSEESNLGANNYDDYRMDWLVPATCEPIQSVFFFSGDKYYRVNLRTRRVDTVDPPYPRSIAQYWLGCPAPGHL
Consider B1, for which the “Number of bESC lines generated” value in experiment [4] came out at 0.

The values are drawn from US20250019657A1, “Generation of Adipocytes from Bovine Embryonic Stem Cell Lines” (Wisconsin Alumni Research Foundation, priority 2023, published 2025).
